For test [1], the target named is T1, human CAR ligand-binding domain (LBD) (Homo sapiens, UniProt Q14994).
T1 sequence (Q14994 109-352 limits assumed): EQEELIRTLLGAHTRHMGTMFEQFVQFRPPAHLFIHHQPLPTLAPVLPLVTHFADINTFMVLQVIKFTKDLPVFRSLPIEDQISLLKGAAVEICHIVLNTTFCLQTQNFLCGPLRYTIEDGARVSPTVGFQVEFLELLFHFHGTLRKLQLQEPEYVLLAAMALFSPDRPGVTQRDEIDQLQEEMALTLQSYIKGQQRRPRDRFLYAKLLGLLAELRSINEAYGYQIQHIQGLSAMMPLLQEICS
Put plainly: LanthaScreen TR-FRET CAR Coactivator Assay. The format is biochemical. Conditions: for IC50: IC50 (95% Conf. Interv.), TR-FRET CAR Assay; for fold activation compared to vehicle control: CITCO 10 μM. An excerpt: The LanthaScreen^TMTR-FRET CAR Coactivator Binding Assay (Cat. No. PV4836, now produced by Thermo) was used with slight modifications of the manufacturer’s protocol. The assay uses two fluorophores: a terbium-labeled anti-GST antibody interacting with glutathione-S-transferase (GST) tagged human CAR ligand-binding domain (LBD) and a fluorescein-labeled PGC1α coactivator peptide (Figure 1). […] Thus, this energy transfer is detected by an increase in the fluorescence emission of the acceptor (fluorescein) and a decrease in the fluorescence emission of the donor (terbium). To quantify the process, TR-FRET is expressed as a ratio of the intensities of the acceptor and donor fluorophores. […] Incubation time was optimized from 1 to 4 h at room temperature and protected from light. […] According to the recommended protocol of the manufacturer, CAR-LBD is added to the solution of test compounds, followed by the addition of a mixture of the fluorescein-coactivator peptide and terbium-labeled anti-GST antibody. In the study we also tested to determine if the order of adding the constituents in the mixture may have an influence on the sensitivity and reproducibility of the assay. […] The terbium was excited using a 340-nm excitation filter with a 30-nm bandwidth and fluorescein was excited with the first emission peak of terbium centered at 495 nm. Energy transfer to fluorescein emission (520 nm) is then measured in the silent region between the first two terbium emission peaks centered at 490 and 545 nm (see Graphical Abstract). […] Delay time was set at 100 μs and integration time 200 μs. Gains set to 100 were the use constant in all the experiments. The 520 nm/495 nm TR-FRET ratio was then calculated. […] The values above the baseline represent activation of CAR LBD-PGC1α interaction and agonistic activity of the tested ligand. The experiments were performed at least three times in quadruplicates. Data are presented as the means and S.D. from three independent experiments (n = 3). […] Dose-response curves were generated by plotting the emission TR-FRET ratio vs. the log of a ligand (in μM). To determine the half maximal inhibitory concentration (IC50) value, the data were fitted using an equation for a sigmoidal dose response inhibition (with a varying slope) using the software GraphPad™ PRISM version 6.05. Z-factors were calculated using the method of Zhang et al..
For orientation: In TR-FRET formats the signal depends on donor and acceptor labels being close together.

The target in a further test is T2, human CAR LBD (Homo sapiens, UniProt Q14994).
T2 construct: encoding C (151–349 aa, helices 3–12, pCAR-C/VP16); N (103–150 aa, helix 1, pCAR-N/GAL4) terminal parts of human CAR LBD; expressed in transfected cells; host or cells: HepG2
T2 sequence (Q14994 103-150 isoform Q14994-2): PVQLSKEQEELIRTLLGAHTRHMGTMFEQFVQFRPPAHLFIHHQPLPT
T2 sequence (Q14994 151-348 isoform Q14994-2): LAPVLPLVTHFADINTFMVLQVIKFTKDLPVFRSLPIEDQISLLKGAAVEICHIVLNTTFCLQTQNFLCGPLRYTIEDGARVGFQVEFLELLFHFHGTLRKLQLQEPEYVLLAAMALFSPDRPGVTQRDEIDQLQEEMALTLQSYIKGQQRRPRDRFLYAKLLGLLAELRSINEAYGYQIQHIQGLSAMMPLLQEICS
The test can be described thus: CAR LBD assembly assay (GAL4/VP16 luciferase reporter in HepG2 cells). The format is cell-based. Conditions: CITCO 1 µM, up to highest studied concentration 30 µM. How it is done:
The CAR LBD assembly assay was performed according to the protocol we described in our latest report. The CAR LBD assembly assay is based on two hybrid expression constructs encoding C (151–349 aa, helices 3–12, pCAR-C/VP16) and N (103–150 aa, helix 1, pCAR-N/GAL4) terminal parts of human CAR LBD that are co-transfected together with the pGL5-luc luciferase gene reporter plasmid (Promega) containing GAL4 binding sites. When the CAR LBD interacts with a ligand (both agonist and antagonist), connection of the helix 1 to CAR LBD helices 3–12 promotes firefly luciferase activation. Thus, the assay monitor interaction of CAR LBD with ligands rather than its activation or deactivation.
On the technique in general: A reporter such as luciferase makes a cellular process visible.

By IC50 is commonly meant the concentration that gives 50% inhibition. Low readings indicate higher potency, high ones lower potency.

On to `C[C@]12CC[C@@H](O)C[C@@H]1CC[C@@H]1[C@@H]2CC[C@]2(C)C=CC[C@@H]12` [Androstenol, 5α-androst-16-en-3α-ol], for which the IC50 in test [1] (CITCO 1 μM, antagonist mode, with agonist CITCO 1 μM) is 313 µM; in test [1] (No CITCO, inverse agonist mode, reduction of CAR constitutive activity), 0.35 µM. The “concentration at which consistent antagonistic effect on CITCO was observed” value in test [1] (with CITCO 1 μM) was determined as 30 µM. In test [1] (with CITCO 1 μM, serial dilution), the “inhibition of CITCO-mediated CAR LBD interaction with PGC1α” value is “did not show any significant inhibition”. For the same compound, the “inhibition of the activity of CITCO” value against human CAR LBD is reported as “weakest inhibition”; against human CAR LBD (listed as androstenol) it was “weaker inhibition”.
Consider `Clc1ccc(-c2nc3sccn3c2C=NOCc2ccc(Cl)c(Cl)c2)cc1` [CITCO, 6-(4-Chlorophenyl)imidazo[2,1-b][1,3]thiazole-5-carbaldehyde O-(3,4-dichlorobenzyl)oxime], for which the “fold activation compared to vehicle control” value is 1.94 fold in test [1] (modified order: CAR-LBD and fluorescein-/terbium-labeled reagents before the agonist (Figure 2B)); 2.26 fold in test [1] (modified order: ligand, fluorescein-PGC1α and Tb antibody, then CAR-LBD (Figure 2A)); 2.56 fold in test [1] (standard procedure (Figure 2C)).
In the case of `Clc1ccccc1C(c1ccccc1)(c1ccccc1)n1ccnc1` [Clotrimazole, 1-[(2-Chlorophenyl)diphenylmethyl]-1H-imidazole], in test [1] (10 μM, no CITCO), the “effect on interaction of CAR LBD with the PGC1α coactivator” value was “almost completely inhibited”. Further, the “effect on constitutive activity of CAR” value in test [1] (30 μM) is on record as “abolish the constitutive activity of CAR”; in test [1] (concentrations of 20 and 30 μM), “abolished constitutive activity of CAR”. For the same compound, the “effect on CITCO-mediated CAR LBD interaction with PGC1α” value in test [1] (30 μM, with CITCO) is listed as “completely abrogated the effect of CITCO”. The “concentration with significant inhibition of CAR LBD constitutive activity” value in test [1] (no CITCO) amounted to 0.01 µM.

The values above are taken from publication PMC4431184, “The Use of the LanthaScreen TR-FRET CAR Coactivator Assay in the Characterization of Constitutive Androstane Receptor (CAR) Inverse Agonists” (Sensors (Basel, Switzerland), 2015).
